Assays:
Experiment in all cases: 3' UTR reporter interaction score (median-centred robust z-score of log2 firefly/Renilla activity); higher = less repression of the 3' UTR reporter
Details in all cases: HEK293T; 48 h
MYCN = system: MYCN
Procedure, shortened: (§1)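 HEK293T cells (10,000/well, 96-well plates) were co-transfected using DharmaFECT Duo with 100 ng firefly luc2P reporter carrying the gene's 3' UTR, 20 ng Renilla pRL-TK control and 2.5 pmol miRNA mimic. Dual-luciferase activities were read 48 h post-transfection. The interaction score is the log-transformed firefly/Renilla ratio as a per-plate robust z-score (median, median absolute deviation), median-centred per miRNA and averaged over at least two independent screens; more negative indicates interaction.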

EZH2 = system: EZH2
Procedure, shortened: as §1

PHOX2B = system: PHOX2B
Procedure, shortened: as §1

MYC = system: MYC
Procedure, shortened: as §1

RB1 = system: RB1
Procedure, shortened: as §1

ZEB2 = system: ZEB2
Procedure, shortened: as §1

MYT1L = system: MYT1L
Procedure, shortened: as §1

HRAS = system: HRAS
Procedure, shortened: as §1

PHF6 = system: PHF6
Procedure, shortened: as §1

BRCA2 = system: BRCA2
Procedure, shortened: as §1

FBXW7 = system: FBXW7
Procedure, shortened: as §1

TP53 = system: TP53
Procedure, shortened: as §1

NOTCH1 = system: NOTCH1
Procedure, shortened: as §1

MYB = system: MYB
Procedure, shortened: as §1

Sequence	3' UTR reporter interaction score (MYCN)	3' UTR reporter interaction score (EZH2)	3' UTR reporter interaction score (PHOX2B)	3' UTR reporter interaction score (MYC)	3' UTR reporter interaction score (RB1)	3' UTR reporter interaction score (ZEB2)	3' UTR reporter interaction score (MYT1L)	3' UTR reporter interaction score (HRAS)	3' UTR reporter interaction score (PHF6)	3' UTR reporter interaction score (BRCA2)	3' UTR reporter interaction score (FBXW7)	3' UTR reporter interaction score (TP53)	3' UTR reporter interaction score (NOTCH1)	3' UTR reporter interaction score (MYB)
UUCCCUUUGUCAUCCUAUGCCU	0.146	0.404	-5.45	-0.0967	0.112	0.832	-0.655	-0.0998	2.55	0.265	-1.78	-0.382	-0.728	0.747
UUCCCUUUGUCAUCCUUCGCCU	0.0207	0.0327	-4.93	-0.168	0.903	-0.675	-0.268	-0.327	0.344	0.539	-1.31	-0.355	-0.19	0.781
UUCUCCAAAAGAAAGCACUUUCUG	-0.288	0.815	1.93	-0.642	1.42	1.36	2.07	0.348	1.85	0.931	-0.49	-0.447	-0.152	-0.561
UUGAGAAUGAUGAAUCAUUAGG	-0.554	-0.195	-0.12	0.0578	-0.111	-0.412	-0.0444	1.09	-1.78	0.13	-0.3	0.335	0.0298	0.0167
UUGCAUAGUCACAAAAGUGA	0.143	0.179	0.0715	0.279	-0.308	-2.2	-0.0799	-0.0974	-0.0278	-0.381	1.37	0.904	0.184	-1.85
UUGCAUAUGUAGGAUGUCCCAU	-0.178	0.731	-1.16	0.476	-0.812	-4.28	-1.22	0.995	-1.76	0.216	1.23	0.961	0.153	-1.75
UUGGCCACAAUGGGUUAGAAC	0.113	-1.06	0.306	0.316	0.342	0.409	1.36	-0.0679	1.18	0.035	-5.44	-0.693	-0.0688	0.316
UUGGUCCCCUUCAACCAGCUA	0.0097	1.2	-0.834	0.62	-0.167	-0.0455	0.425	1.24	-1.46	-0.159	1.01	-0.692	-0.864	-0.0299
UUGGUCCCCUUCAACCAGCUGU	0.117	1.28	-0.898	0.174	-0.063	-0.135	0.5	1.24	-1.13	0.152	1	-1.45	-0.968	0.254
UUGUACAUGGUAGGCUUUCAUU	1.27	0.0583	0.723	1.21	0.635	-1.84	-0.141	0.289	-1.11	-0.0352	-0.171	-0.89	0.647	1.15
UUGUGCUUGAUCUAACCAUGU	-0.328	0.222	-1.73	0.0929	0.758	-0.746	-0.134	-0.276	0.117	0.391	0.164	-0.638	0.182	0.205
UUUAACAUGGGGGUACCUGCUG	0.0587	0.537	-1.08	-0.0461	0.395	-0.448	-0.244	0.621	0.182	1.26	0.198	-0.238	-0.514	-1.1
UUUAGGAUAAGCUUGACUUUUG	-0.873	0.299	-0.958	-0.602	-0.349	-2.69	0.523	-0.108	-0.597	0.711	1.12	0.0255	-0.42	0.0477
UUUCCAUAGGUGAUGAGUCAC	1.24	-3.48	-0.505	0.823	0.93	-0.252	-0.218	0.654	-0.367	-0.419	-0.836	-0.699	-0.326	1.55
UUUCCUAUGCAUAUACUUCUUU	0.517	-0.62	-0.604	0.151	0.265	0.911	1.98	-0.802	-0.444	0.202	0.0806	-0.504	-2.15	0.476
UUUGGCAAUGGUAGAACUCACA	-0.0764	0.322	0.438	-0.026	0.469	0.837	0.203	-0.139	-0.697	-0.0444	-2.86	0.0472	-0.441	-1.17
UUUGUUCGUUCGGCUCGCGUGA	-0.313	0.52	0.0504	0.135	-0.809	0.164	-0.751	-0.635	1.7	1.05	-0.0777	0.275	0.323	-0.574
UUUUGCACCUUUUGGAGUGAA	0.905	-0.000424	-0.86	0.393	-1.86	-4.16	-0.182	-0.429	0.706	0.467	-3.44	0.767	1.27	1
UUUUUGCGAUGUGUUCCUAAUA	-0.818	1.27	0.492	0.66	-2.29	-2.41	0.157	0.633	0.21	0.151	-2.28	0.414	0.568	0.165

Reference: the supplement of paper PMC5844555
